From article PMC3760508 (Journal of medicinal chemistry, 2009)

Experiments:
cruzain = cruzain (Trypanosoma cruzi, UniProt P25779); test: biochemical; type: biochemical; settings: for cruzain inhibition (in words): Figure 1 analogs; for change of cruzain IC50 between low and high detergent concentration: 0.001% vs 0.01% Triton X-100
particle = type: physicochemical; settings: for particles? lowest evaluated concentration at which particle formation was observed: flow cytometry, in some cases confirmed by DLS
AmpC β-lactamase = AmpC β-lactamase (Escherichia coli, UniProt P00811); test: AmpC β-lactamase detergent-sensitive inhibition; type: biochemical; settings: reversal by 0.01% Triton
AmpC β-lactamase, sequence (P00811 20-377): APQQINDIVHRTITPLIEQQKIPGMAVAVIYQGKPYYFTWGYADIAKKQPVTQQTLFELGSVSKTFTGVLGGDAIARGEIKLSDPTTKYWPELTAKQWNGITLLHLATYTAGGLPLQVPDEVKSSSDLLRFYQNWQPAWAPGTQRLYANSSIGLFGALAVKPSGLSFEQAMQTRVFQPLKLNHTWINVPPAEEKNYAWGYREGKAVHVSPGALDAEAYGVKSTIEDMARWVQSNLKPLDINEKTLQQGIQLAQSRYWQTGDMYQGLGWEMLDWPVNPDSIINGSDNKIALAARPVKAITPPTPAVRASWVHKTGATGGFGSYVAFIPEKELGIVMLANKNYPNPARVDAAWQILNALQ

[1] = high Triton (0.01% Triton X-100), 23 at 50 μM
[2] = low Triton (0.001% Triton X-100), 23 at 5 μM, 1 at 25 μM

cruzain, sequence (P25779 123-467): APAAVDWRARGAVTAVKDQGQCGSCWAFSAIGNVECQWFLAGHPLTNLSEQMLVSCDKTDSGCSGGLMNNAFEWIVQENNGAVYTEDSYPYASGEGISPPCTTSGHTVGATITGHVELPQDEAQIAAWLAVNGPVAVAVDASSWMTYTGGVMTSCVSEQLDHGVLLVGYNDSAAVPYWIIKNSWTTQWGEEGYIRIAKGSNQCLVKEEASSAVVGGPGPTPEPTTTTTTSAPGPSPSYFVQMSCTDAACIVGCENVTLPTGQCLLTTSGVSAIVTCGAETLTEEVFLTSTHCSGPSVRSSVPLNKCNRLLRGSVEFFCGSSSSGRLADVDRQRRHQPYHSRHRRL

| particles? lowest evaluated concentration at which particle formation was observed (particle) [µM] | Structure (SMILES) | change of cruzain IC50 between low and high detergent concentration (cruzain) | mode of cruzain inhibition (cruzain; [1]) | other results |
| --- | --- | --- | --- | --- |
| – | O=C(COC(=O)c1ccccn1)Nc1cc(Cl)ccc1Cl [Compound 4] | – | – | cruzain inhibition (in words) (cruzain): essentially inactive |
| – | Cc1cc(NC(=O)c2nnc(-c3ccccc3N)o2)n[nH]1 [Compound 25] | – | – | detergent-reversible inhibition of AmpC β-lactamase (AmpC β-lactamase): the exception |
| >200 | CCN1CCC[C@H]1CNC(=O)c1nnc(-c2ccccc2N)o1 [Compound 18] | – | – | – |
| – | Nc1ncccc1C(=O)OCC(=O)NC1CCCCCC1 [Compound 2] | essentially unaltered | competitive inhibitors | – |
| >100 | Nc1ccccc1-c1nnc(C(=O)Nc2ccc3oc4c(c3c2)CCCC4)o1 [Compound 12] | – | – | formation of colloidal aggregates (particles) (particle; DLS and flow cytometry, 0.001% Triton X-100, relevant inhibitory concentrations): the exception |
| – | Nc1ccccc1-c1nnc(C(=O)Nc2cc(-c3cccs3)[nH]n2)o1 [Compound 23] | – | competitive | IC50 (cruzain): 82.4 µM; mode of cruzain inhibition (cruzain; [2]): non-competitive |
| – | CCC(NC(=O)COC(=O)c1cccnc1N)c1ccc(Br)cc1 (stereo not shown) [Compound 3] | essentially unaltered | competitive inhibitors | – |
| – | Cc1cccc(C(=O)OCC(=O)Nc2cc(Cl)ccc2Cl)c1 [Compound 5] | – | – | cruzain inhibition (in words) (cruzain): essentially inactive |

| Structure (SMILES) | particles? lowest evaluated concentration at which particle formation was observed (particle) [µM] | change of cruzain IC50 between low and high detergent concentration (cruzain) | mode of cruzain inhibition (cruzain; [1]) | other results |
| --- | --- | --- | --- | --- |
| Nc1ncccc1C(=O)OCC(=O)Nc1cc(Cl)ccc1Cl [Compound 1] | 25 | ~ 3 fold | competitive inhibition | dependence of cruzain inhibition on incubation time (cruzain; 0.01% Triton X-100): independent of incubation time; mode of cruzain inhibition (cruzain; [2]): non-competitive; detergent-reversible inhibition of AmpC β-lactamase (AmpC β-lactamase): found to inhibit AmpC, and its inhibition was reversed by 0.01% Triton |
